Experimental data taken from PubChem BioAssay AID2060484 (Molecular Pharmacology Branch, DTP, NCI, 2025).

System: SUM149PT spheroids with HUVEC/MSC, viability
Assay: Anticancer human tumor SUM149PT cell line growth inhibition [GQUAD];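 note: spheroids exposed to drugs for seven days before readout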;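 for viability, T/C: percent viability relative to DMSO vehicle control taken as 100%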
Settings: for IC50: curve of first compound; for viability, T/C: stronger effect = lower value
Summary of the method: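 Tumor cells were grown as complex spheroids with HUVEC endothelial cells and mesenchymal stem cells as stroma. G-quadruplex stabilizers were combined with targeted agents over half-log dilutions from near the clinical Cmax, or from 10 microM.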

`CC1COCCN1c1cc(C2(O)CC3CCC(C2)O3)c2cnn(-c3ccn[nH]3)c2n1` (configuration not stated) + Cc1cnc(CNC(=O)c2c(=O)c3ccc(N4CCCN(C)CC4)nc3n3c2sc2ccccc23)cn1 was tested, and the IC50 (second compound 0.0316 µM) was < 31.6 nM, the IC50 (second compound 0.1 µM) was < 31.6 nM and the IC50 (second compound 0.316 µM) was < 31.6 nM. For the same compound, the IC50 (second compound 1 µM) was < 31.6 nM, the IC50 (second compound 3.16 µM) was < 31.6 nM and the IC50 (second compound 10 µM) was < 31.6 nM. The viability, T/C (second compound 0.0316 µM, first compound 0.0316 µM) was 18.1%, the viability, T/C (second compound 0.0316 µM, first compound 0.1 µM) was 15.6% and the viability, T/C (second compound 0.0316 µM, first compound 0.316 µM) was 18.9%. The viability, T/C (second compound 0.0316 µM, first compound 1 µM) was 17.3%, the viability, T/C (second compound 0.0316 µM, first compound 3.16 µM) was 19.6% and the viability, T/C (second compound 0.0316 µM, first compound 10 µM) was 15.7%. For the same compound, the viability, T/C (second compound 0.1 µM, first compound 0.0316 µM) was 19.2%, the viability, T/C (second compound 0.1 µM, first compound 0.1 µM) was 18.7% and the viability, T/C (second compound 0.1 µM, first compound 0.316 µM) was 19.7%. The viability, T/C (second compound 0.1 µM, first compound 1 µM) was 18.3%, the viability, T/C (second compound 0.1 µM, first compound 3.16 µM) was 17.6% and the viability, T/C (second compound 0.1 µM, first compound 10 µM) was 14.8%. It also gave a viability, T/C (second compound 0.316 µM, first compound 0.0316 µM) of 19.4%, a viability, T/C (second compound 0.316 µM, first compound 0.1 µM) of 21.5% and a viability, T/C (second compound 0.316 µM, first compound 0.316 µM) of 22%. The viability, T/C (second compound 0.316 µM, first compound 1 µM) was 18.2%, the viability, T/C (second compound 0.316 µM, first compound 3.16 µM) was 17.9% and the viability, T/C (second compound 0.316 µM, first compound 10 µM) was 12.6%. It also gave a viability, T/C (second compound 1 µM, first compound 0.0316 µM) of 21.8%, a viability, T/C (second compound 1 µM, first compound 0.1 µM) of 23.7% and a viability, T/C (second compound 1 µM, first compound 0.316 µM) of 21.4%. For the same compound, the viability, T/C (second compound 1 µM, first compound 1 µM) was 17.4%, the viability, T/C (second compound 1 µM, first compound 3.16 µM) was 15.7% and the viability, T/C (second compound 1 µM, first compound 10 µM) was 12.9%. For the same compound, the viability, T/C (second compound 3.16 µM, first compound 0.0316 µM) was 23%, the viability, T/C (second compound 3.16 µM, first compound 0.1 µM) was 22.9% and the viability, T/C (second compound 3.16 µM, first compound 0.316 µM) was 21.1%. For the same compound, the viability, T/C (second compound 3.16 µM, first compound 1 µM) was 16%, the viability, T/C (second compound 3.16 µM, first compound 3.16 µM) was 14.7% and the viability, T/C (second compound 3.16 µM, first compound 10 µM) was 11%. For the same compound, the viability, T/C (second compound 10 µM, first compound 0.0316 µM) was 0.11%, the viability, T/C (second compound 10 µM, first compound 0.1 µM) was 1.32% and the viability, T/C (second compound 10 µM, first compound 0.316 µM) was 1.05%. It also gave a viability, T/C (second compound 10 µM, first compound 1 µM) of 1.13%, a viability, T/C (second compound 10 µM, first compound 3.16 µM) of 1.57% and a viability, T/C (second compound 10 µM, first compound 10 µM) of 0.19%.
